Assay results from ChEMBL document CHEMBL1137200, “Discovery of a Subnanomolar helical D-tridecapeptide inhibitor of gamma-secretase” (J Med Chem, 2004).

Target: Gamma-secretase
Assay: Inhibitory activity against Gamma-secretase from APP-transfected CHO cells
Format: functional, cell-based, Homo sapiens

SMILES	IC50 [nM]
CC[C@@H](C)[C@@H](NC(=O)[C@H](NC(=O)[C@H](NC(=O)C(C)(C)NC(=O)CNC(=O)[C@H](NC(=O)OC(C)(C)C)C(C)C)C(C)C)C(C)C)C(=O)NC(C)(C)C(=O)N[C@@H](C(=O)N[C@@H](C(=O)NC(C)(C)C(=O)N[C@@H](C(=O)N[C@@H](C(=O)NC(C)(C)C(=O)OC)[C@H](C)CC)C(C)C)C(C)C)[C@H](C)OCc1ccccc1	9

Target: Gamma-secretase
Assay: Inhibitory activity against Gamma-secretase in detergent-solubilized HeLa cell membranes with recombinant APP-based substrate

SMILES	IC50 [nM]
CC[C@H](C)[C@H](NC(=O)[C@@H](NC(=O)[C@@H](NC(=O)C(C)(C)NC(=O)CNC(=O)[C@@H](NC(=O)C(C)(C)NC(=O)[C@H](CC(C)C)NC(=O)CNC(=O)OC(C)(C)C)C(C)C)C(C)C)C(C)C)C(=O)NC(C)(C)C(=O)N[C@H](C(=O)N[C@H](C(=O)NC(C)(C)C(=O)N[C@H](C(=O)N[C@H](C(=O)NC(C)(C)C(=O)OC)[C@@H](C)CC)C(C)C)C(C)C)[C@@H](C)OCc1ccccc1	11000
CC[C@H](C)[C@H](NC(=O)[C@@H](NC(=O)[C@@H](NC(=O)C(C)(C)NC(=O)CNC(=O)[C@@H](NC(=O)C(C)(C)NC(=O)OC(C)(C)C)C(C)C)C(C)C)C(C)C)C(=O)NC(C)(C)C(=O)N[C@H](C(=O)N[C@H](C(=O)NC(C)(C)C(=O)N[C@H](C(=O)N[C@H](C(=O)NC(C)(C)C(=O)OC)[C@@H](C)CC)C(C)C)C(C)C)[C@@H](C)OCc1ccccc1	910
CC[C@H](C)[C@H](NC(=O)[C@@H](NC(=O)[C@@H](NC(=O)C(C)(C)NC(=O)OC(C)(C)C)C(C)C)C(C)C)C(=O)NC(C)(C)C(=O)N[C@H](C(=O)N[C@H](C(=O)NC(C)(C)C(=O)N[C@H](C(=O)N[C@H](C(=O)NC(C)(C)C(=O)OC)[C@@H](C)CC)C(C)C)C(C)C)[C@@H](C)OCc1ccccc1	3100
CC[C@@H](C)[C@@H](NC(=O)[C@H](NC(=O)[C@H](NC(=O)C(C)(C)NC(=O)CNC(=O)[C@H](NC(=O)OC(C)(C)C)C(C)C)C(C)C)C(C)C)C(=O)NC(C)(C)C(=O)N[C@@H](C(=O)N[C@@H](C(=O)NC(C)(C)C(=O)N[C@@H](C(=O)N[C@@H](C(=O)NC(C)(C)C(=O)OC)[C@H](C)CC)C(C)C)C(C)C)[C@H](C)OCc1ccccc1	0.14
CC[C@H](C)[C@H](NC(=O)[C@@H](NC(=O)[C@@H](NC(=O)C(C)(C)NC(=O)CNC(=O)[C@@H](NC(=O)OC(C)(C)C)C(C)C)C(C)C)C(C)C)C(=O)NC(C)(C)C(=O)N[C@H](C(=O)N[C@H](C(=O)NC(C)(C)C(=O)OC)C(C)C)[C@@H](C)OCc1ccccc1	30000
CC[C@@H](C)[C@@H](NC(=O)[C@H](NC(=O)[C@H](NC(=O)C(C)(C)NC(=O)OC(C)(C)C)C(C)C)C(C)C)C(=O)NC(C)(C)C(=O)N[C@@H](C(=O)N[C@@H](C(=O)NC(C)(C)C(=O)N[C@@H](C(=O)N[C@@H](C(=O)NC(C)(C)C(=O)OC)[C@H](C)CC)C(C)C)C(C)C)[C@H](C)OCc1ccccc1 (single isomer, unassigned)	28
CC[C@H](C)[C@H](NC(=O)[C@@H](NC(=O)[C@@H](NC(=O)C(C)(C)NC(=O)CNC(=O)[C@@H](NC(=O)OC(C)(C)C)C(C)C)C(C)C)C(C)C)C(=O)NC(C)(C)C(=O)N[C@H](C(=O)N[C@H](C(=O)NC(C)(C)C(=O)N[C@H](C(=O)N[C@H](C(=O)NC(C)(C)C(=O)OC)[C@@H](C)CC)C(C)C)C(C)C)[C@@H](C)OCc1ccccc1	780
CC[C@H](C)[C@H](NC(=O)[C@@H](NC(=O)[C@@H](NC(=O)C(C)(C)NC(=O)CNC(=O)[C@@H](NC(=O)C(C)(C)NC(=O)[C@H](CC(C)C)NC(=O)OC(C)(C)C)C(C)C)C(C)C)C(C)C)C(=O)NC(C)(C)C(=O)N[C@H](C(=O)N[C@H](C(=O)NC(C)(C)C(=O)N[C@H](C(=O)N[C@H](C(=O)NC(C)(C)C(=O)OC)[C@@H](C)CC)C(C)C)C(C)C)[C@@H](C)OCc1ccccc1	4700
CC[C@@H](C)[C@@H](NC(=O)[C@H](NC(=O)[C@H](NC(=O)C(C)(C)NC(=O)CNC(=O)[C@H](NC(=O)C(C)(C)NC(=O)OC(C)(C)C)C(C)C)C(C)C)C(C)C)C(=O)NC(C)(C)C(=O)N[C@@H](C(=O)N[C@@H](C(=O)NC(C)(C)C(=O)N[C@@H](C(=O)N[C@@H](C(=O)NC(C)(C)C(=O)OC)[C@H](C)CC)C(C)C)C(C)C)[C@H](C)OCc1ccccc1	14
CC[C@@H](C)[C@@H](NC(=O)[C@H](NC(=O)[C@H](NC(=O)C(C)(C)NC(=O)CNC(=O)[C@H](NC(=O)C(C)(C)NC(=O)[C@@H](CC(C)C)NC(=O)OC(C)(C)C)C(C)C)C(C)C)C(C)C)C(=O)NC(C)(C)C(=O)N[C@@H](C(=O)N[C@@H](C(=O)NC(C)(C)C(=O)N[C@@H](C(=O)N[C@@H](C(=O)NC(C)(C)C(=O)OC)[C@H](C)CC)C(C)C)C(C)C)[C@H](C)OCc1ccccc1	16
CC[C@@H](C)[C@@H](NC(=O)[C@H](NC(=O)[C@H](NC(=O)OC(C)(C)C)C(C)C)C(C)C)C(=O)NC(C)(C)C(=O)N[C@@H](C(=O)N[C@@H](C(=O)NC(C)(C)C(=O)N[C@@H](C(=O)N[C@@H](C(=O)NC(C)(C)C(=O)OC)[C@H](C)CC)C(C)C)C(C)C)[C@H](C)OCc1ccccc1	25
CC[C@H](C)[C@H](NC(=O)[C@@H](NC(=O)[C@@H](NC(=O)OC(C)(C)C)C(C)C)C(C)C)C(=O)NC(C)(C)C(=O)N[C@H](C(=O)N[C@H](C(=O)NC(C)(C)C(=O)N[C@H](C(=O)N[C@H](C(=O)NC(C)(C)C(=O)OC)[C@@H](C)CC)C(C)C)C(C)C)[C@@H](C)OCc1ccccc1	10000
CC[C@@H](C)[C@@H](NC(=O)[C@H](NC(=O)[C@H](NC(=O)C(C)(C)NC(=O)CNC(=O)OC(C)(C)C)C(C)C)C(C)C)C(=O)NC(C)(C)C(=O)N[C@@H](C(=O)N[C@@H](C(=O)NC(C)(C)C(=O)N[C@@H](C(=O)N[C@@H](C(=O)NC(C)(C)C(=O)OC)[C@H](C)CC)C(C)C)C(C)C)[C@H](C)OCc1ccccc1	12
CC[C@@H](C)[C@@H](NC(=O)[C@H](NC(=O)[C@H](NC(=O)C(C)(C)NC(=O)CNC(=O)[C@H](NC(=O)C(C)(C)NC(=O)[C@@H](CC(C)C)NC(=O)CNC(=O)OC(C)(C)C)C(C)C)C(C)C)C(C)C)C(=O)NC(C)(C)C(=O)N[C@@H](C(=O)N[C@@H](C(=O)NC(C)(C)C(=O)N[C@@H](C(=O)N[C@@H](C(=O)NC(C)(C)C(=O)OC)[C@H](C)CC)C(C)C)C(C)C)[C@H](C)OCc1ccccc1	26
CC[C@H](C)[C@H](NC(=O)[C@@H](NC(=O)[C@@H](NC(=O)C(C)(C)NC(=O)CNC(=O)OC(C)(C)C)C(C)C)C(C)C)C(=O)NC(C)(C)C(=O)N[C@H](C(=O)N[C@H](C(=O)NC(C)(C)C(=O)N[C@H](C(=O)N[C@H](C(=O)NC(C)(C)C(=O)OC)[C@@H](C)CC)C(C)C)C(C)C)[C@@H](C)OCc1ccccc1	360
CC[C@@H](C)[C@@H](NC(=O)[C@H](NC(=O)[C@H](NC(=O)C(C)(C)NC(=O)CNC(=O)[C@H](NC(=O)OC(C)(C)C)C(C)C)C(C)C)C(C)C)C(=O)NC(C)(C)C(=O)N[C@@H](C(=O)N[C@@H](C(=O)NC(C)(C)C(=O)OC)C(C)C)[C@H](C)OCc1ccccc1	90
